From patent publication US20250281480A1, “PHARMACEUTICAL DRY POWDER INHALATION FORMULATION” (Bayer Aktiengesellschaft, priority 2021, published 2025)

Experiments:
[1] = Phase I, single inhaled, inhaled + charcoal, oral and intravenous doses in healthy male subjects: plasma concentrations, lung deposition; assay type: in vivo, human
Procedure: Healthy white male subjects, aged 18 to 45 years with a body mass index (BMI) above/equal 18.5 and below/equal 29.9 kg/m^2 were treated in a clinical phase I study with a single inhaled dose of 1000 μg (nominal dose), a single inhaled dose of 1000 μg (nominal dose)+charcoal block, a single oral dose of 1000 μg and a single infusion over 2 h of 100 μg of example 4. As the bioavailability of an intravenous application is generally 100% per definition and therefore higher than in case of an oral or […], the intravenous dose was carefully selected to be lower than the oral and inhaled dose to avoid higher plasma concentration resulting from a high IV dose and potential side effect, e.g. reduction in blood pressure or syncope. Therefore, 100 μg was selected for the IV dose in this investigation. Seven days washout period between treatments was applied. The subjects swallowed a solution for oral administration (20 ml comprising 1000 μg see under C-2, table 49a). The subjects received a solution as a single infusion over 2 hours (2 ml comprising 100 μg see under C-2 table 49a). The subjects inhaled the drug powder from capsules (see under C-1, tables 17 and 20) inserted into a handheld inhalation device by one deep inhalative breath. After inhalation of the dry powder formulation of this drug, some parts of the nominal dose remain in the capsule and the device, the dose which reaches the body at the mouthpiece is called the emitted dose. The emitted dose can be calculated/determined as followed: nominal dose−(remains in the capsule+remains in the device). After inhalation of the dry powder, one part of the emitted dose enters the gastrointestinal tract (GT and is called the oral part of the emitted dose, the other part of the emitted dose which reaches the lung through the respiratory airways is called the lung dose and represents the lung deposited dose. As the lung is the target organ of the effect, the lung deposited dose must be quantified. Lung deposition can be indirectly estimated, by determining the part of the nominal dose which reaches the GIT and the remains in the capsule and the device. To investigate and determine lung deposition, the following investigations were done (see also FIG. 59): • 1—Inhaled application of a single dose of 1000 μg of the dry powder. • 2—Inhaled application of a single dose of 1000 μg of the dry powder in combination with oral administration of charcoal block. The charcoal block capped the oral absorption of GIT part of the dose, as example 4 completely adsorbed to charcoal block. This implies that the concentrations of example 4 measured reach the systemic circulation via the lung. • 3—Administration of a single oral dose of 1000 μg example 4 to determine the oral absorption. • 4—Administration of a 2 h infusion of example 4 to investigate the elimination.

[2] = test system: anesthetized thromboxane A2 challenged PAH-minipig; assay: Haemodynamics in the anesthetized thromboxane challenged minipig (PAH minipig), inhaled nebulized solution: lung selectivity and duration of action; assay type: in vivo, Göttingen Minipigs
Procedure: (§1) Healthy Göttingen Minipigs® Ellegaard (Ellegaard, Denmark) of both sexes and having a weight of 2-6 kg were used. The animals were sedated by i.m. administration of about 25 mg/kg ketamine and about 10 mg/kg azaperone. Anaesthesia was initiated by i.v. administration of about 2 mg/kg ketamine and about 0.3 mg/kg midazolam. Maintenance of anaesthesia was by i.v. administration of about 7.5-30 mg/kg/h ketamine and about 1-4 mg/kg/h midazolam (rate of infusion 1-4 ml/kg/h) and about 150 μg/kg/h pancuronium bromide (for example Pancuronium-Actavis). After intubation, the animals were ventilated by the ventilator at a constant respiratory volume (10-12 ml/kg, 35 breaths/min; Avea®, Viasys Healthcare, USA, or Engström Carestation, GE Healthcare, Freiburg, Germany) such that an end-tidal CO2 concentration of about 5% was achieved. Ventilation was performed with room air, enriched with about 40% oxygen (normoxia). For the measurement of the haemodynamic parameters such as pulmonary arterial pressure (PAP), blood pressure (BP) and heart rate (HR), catheters were inserted into the carotid artery to measure the blood pressure, and a Swan-Ganz® catheter was introduced in a flow-directed manner via the jugular vein into the pulmonary artery. The haemodynamic signals were recorded and evaluated by means of pressure transducers (Combitransducer, B. Braun, Melsungen, Germany)/amplifiers and Ponemah® as data acquisition software.
After the instruments have been placed into the animals, continuous infusion of a thromboxane A2 analog was initiated to increase the pulmonary arterial pressure. About 0.3-0.75 μg/kg/min of 9,11-didesoxy-9α,11α-epoxymethanoprostaglandine F2α (U-44069; Sigma, cat. no. D0400, or Cayman Chemical Company, cat. no. 16440), dissolved in physiological saline, were infused to achieve an increase of the mean pulmonary arterial pressure to values of over 25 mmHg. 30 minutes after the start of the infusion, a plateau was reached, and the experiment was started.
The test substances were administered as i.v. infusion or by inhalation. For the preparation of the solution for inhalation, the following procedure was adopted: For an animal having a weight of 4 kg, to prepare the stock solution (300 μg/kg), 1.2 mg of the test compound were weighed out and dissolved in a total volume of 3 ml (1% DMSO, 99% 0.2% strength citric acid solution, 1 n aqueous sodium hydroxide solution to adjust the pH to 8). The solution was then diluted to the concentration employed using 0.2% strength citric acid which had been adjusted to pH 8 beforehand with aqueous sodium hydroxide solution. In each test, 3 ml of the solution of test compound per 4 kg animal were nebulized in the inhalation arm of the respiratory circuit using the Aeroneb® Pro nebulizer system. The mean nebulization time was about 7 min from the start of the nebulization.
With respect to a prediction of the duration of action for human studies comparative example 11 was compared in the PAH minipig model after inhaled application to Ventavis® (=Iloprost, 10 μg/kg nominal dose), which we used as a clinical reference. […] Therefore, the duration of action is more than 6 times longer compared to Ventavis in this preclinical animal model.

[3] = test system: anesthetized PAH minipigs; assay: PAH minipig, intratracheal application of dry powder formulations and of different hydrates (PAP, BP); assay type: in vivo, Göttingen Minipigs; conditions: dry powder lactose formulation, i.t.
Procedure: as §1
About 0.3-0.75 μg/kg/min of 9,11-didesoxy-9α,11α-epoxymethanoprostaglandine F2α (U-44069; Sigma, cat. no. D0400, or Cayman Chemical Company, cat. no. 16440), dissolved in physiological saline, were infused to achieve an increase of the mean pulmonary arterial pressure to values of over 25 mmHg.
After characterization of the effects of comparative example 11 after nebulization of compound solutions, in a further step the effects of crystalline forms of comparative example 11, e.g. sesquihydrate, e.g. example 6e on PAP and BP after inhaled application of different dry powder lactose formulations (table 52) were studied in anesthetized PAH minipigs.
As reference pure Lactose vehicle was applied in the beginning of each experiment.

SMILES	absolute bioavailability ([1]; dry powder inhaled with charcoal)	absolute bioavailability ([1]; dry powder inhaled without charcoal)	elimination half-life ([1]; inhaled 1000 μg with charcoal)	elimination half-life ([1]; inhaled 1000 μg without charcoal)	elimination half-life ([1]; intravenous, 100 μg infusion over 2 h)	elimination half-life ([1]; oral, 1000 μg)	minimal effective nominal dose ([2]; 5% reduction in PAP, nebulized)	dose dependent efficacy (PAP) during observation interval ([2]; all doses (10, 30 and 100 μg/kg nominal dose), inhaled)	selective PAP effect, duration of maximal effect ([2]; inhaled application, whole observation interval)	duration of action ([2]; minipig model, inhaled)	time of maximal effect on PAP after inhaled application ([2]; nebulized solution)	MED [3]
O=C(O)c1ccc(CCN(CCc2ccccc2OCc2ccc(-c3ccc(C(F)(F)F)cc3)cc2Cl)[C@H]2CCCc3nc(C(=O)O)ccc32)cc1 [Example 4, (5S)—{[2-(4-Carboxyphenyl)ethyl][2-(2-{[3-chloro-4′-(trifluoromethyl)biphenyl-4-yl]methoxy}phenyl)-ethyl]amino}-5,6,7,8-tetrahydroquinoline-2-carboxylic Acid as Monohydrate I]	16.3%	18.8%	16.1 h	15.1 h	0.26 h	4.43 h	–	–	–	–	–	–
O=C(O)c1ccc(CCN(CCc2ccccc2OCc2ccc(-c3ccc(C(F)(F)F)cc3)cc2Cl)[C@H]2CCCc3nc(C(=O)O)ccc32)cc1 [Comparative example 11, (5S)-5-{[2-(4-carboxyphenyl)ethyl][2-(2-{[3-chloro-4′-(trifluoromethyl)[biphenyl]-4-yl]methoxy}phenyl)ethyl]amino}-5,6,7,8-tetrahydroquinoline-2-carboxylic Acid]	–	–	–	–	–	–	3 µg/kg	240 min	240 min	sufficient duration of action	about 90 min	< 7.5 µg/kg
